According to publication PMC9889749, “CID12261165, a flavonoid compound as antibacterial agents against quinolone-resistant Staphylococcus aureus” (Scientific Reports, 2023):

Assays:
Format in all cases: biochemical
[1] = target: T1, DNA gyrase (GyrA S84L + wild-type GyrB) (Staphylococcus aureus, UniProt Q932M0); assay: in vitro DNA cleavage assay and DNA supercoiling assay with recombinant gyrase
T1 construct: GyrA(S84L) from strain Mu50; with GyrB

[2] = target: T2, DNA gyrase (wild-type GyrA + GyrB) (Staphylococcus aureus, UniProt P20831); assay: as above
T2 construct: wild-type GyrA from strain FDA209P; with GyrB

[3] = target: T3, topoisomerase IV (wild-type ParC) (Staphylococcus aureus, UniProt Q2FYS4); assay: in vitro DNA cleavage assay with recombinant topoisomerase IV
T3 construct: wild-type ParC from strain FDA209P; with ParE

## COc1ccc2c(=O)cc(-c3ccc(O)c(OC)c3)oc2c1 [CID12261165]
[1]
  IC50: 4 µg/mL

## C[C@H]1COc2c(N3CCN(C)CC3)c(F)cc3c(=O)c(C(=O)O)cn1c23 [Levofloxacin]
[2]
  in vitro DNA cleavage assay and DNA supercoiling assay with recombinant gyrase: using levofloxacin as a compound of interest, failure of DNA supercoiling activity was decreased upon acquisition of S84L mutation
[3]
  IC50: 1.38 µM
